Experimental data from US20260183302A1, “PDK1 REGULATORY COMPOUND AND COMPOSITION CONTAINING THE SAME” (PROVIBIO CO., LTD., priority 2024, published 2026).

Assays:
[1] = test system: Human B Lymphocyte cell line, SU-DHL-8; assay: Relative cell viability, SU-DHL-8 (CCK-8); assay type: cell-based; conditions: 48 hours, untreated (DMSO) = 100%
Procedure: Human-derived B lymphoma cell line SU-DHL-8 (Cat. #CRL-2961) purchased from ATCC was cultured in RPMI-1640 medium containing 10% FBS, 100 U/mL penicillin, and 100 μg/mL streptomycin.
The cell culture medium was then harvested, centrifuged at 1,300 rpm for 5 minutes, and the supernatant was removed. The cells were resuspended in the same medium and dispensed into a 96-well plate (Costar 96-well cell culture plate, Corning) at 90 μL per well, resulting in the conditions specified in Table 5.
Then, 10 μL of CCK-8 was added to each well, and the plates were incubated again at 37° C. in a 5% CO2 incubator for 4 hours.
In other words, when the survival rate of untreated cells (DMSO) is set at 100%, the relative cell survival rate in each group treated with the drug at different concentrations is indicated.

[2] = test system: T cells isolated from mouse spleens; assay: T cell proliferation inhibition (CFSE flow cytometry, anti-CD3/anti-CD28 stimulation); assay type: cell-based, C57BL/6 mice; conditions: three days
Procedure: To verify the T cell proliferation inhibitory effect of the compounds according to the present invention, the following experiment was performed based on flow cytometry analysis using carboxyfluorescein diacetate succinimidyl ester (CFSE), a fluorescent dye that binds to intracellular molecules via covalent bonds.
Spleens were extracted from 7-week-old C57BL/6 mice, ground, and then separated into single cells using a strainer (40 μm pore size, SPL). Red blood cells were removed using ACK (Ammonium-Chloride-Potassium) lysis buffer to isolate white blood cells.
Finally, using a MACS Magnetic Stand and LS column, T cells were isolated from the spleen.
The T cells isolated from the spleen were resuspended in 1 mL of free medium (RPMI-1640+200 U/mL penicillin+200 μg/mL streptomycin), and 0.3 μL of CFSE (10 mM) was added. The mixture was incubated at 37° C. for 5 minutes.
Free medium (10 mL) was added to stop the reaction, and the cells were centrifuged to obtain the cell pellet.
RPMI 1640 medium containing 10% FBS, 100 U/mL penicillin, 100 μg/mL streptomycin, and resuspended the cells. The cells were then seeded into a 96-well plate at a density of 2× 10^5 cells per well and activated with CD3 and CD28 antibodies (0.5 μg/mL each) to activate T cells.
The compound diluted in DMSO was added at concentrations of 10 nM, 100 nM, 1 μM, 10 μM, 30 μM, and 50 μM, with three wells per concentration, and cultured at 37° C. and 5% CO2 for three days. The cells were then analyzed using a FACS Canto instrument.
The proliferation inhibition rate (%) was calculated using the following formula: […]

For `C[C@H]1CNCCN1CCCCCCCCCCCCNC(=O)c1cccnc1N.Cl` [Compound 37, (S)-2-Amino-N-(12-(2-methylpiperazin-1-yl)dodecyl) nicotinamide hydrochloride], which “Relative cell viability (%)” value ([1]; SU-DHL-8, 1 μM) is on record?
Its value is 6.38%.

And the “Relative cell viability (%)” value ([1]; SU-DHL-8, 10 μM)?
The value was 4.45%.

What about the “Relative cell viability (%)” value ([1]; SU-DHL-8, 30 μM) of the same compound?
Its value is 3.17%.

What about the “Relative cell viability (%)” value ([1]; SU-DHL-8, 50 μM) of the same compound?
Its value is 2.32%.

And the “Proliferation inhibition rate (%)” value ([2]; concentration 1 μM)?
Its value is 100.00%.

And the “Proliferation inhibition rate (%)” value ([2]; concentration 10 μM)?
The value was 100.00%.

And the “Proliferation inhibition rate (%)” value ([2]; concentration 30 μM)?
The value was 100.00%.

What about the “Proliferation inhibition rate (%)” value ([2]; concentration 50 μM) of the same compound?
The value was 100.00%.

What does the source list for `Nc1ncccc1C(=O)NCCCCCCCCCCCCN1CCC(Oc2ccncc2)CC1` [Compound 38, 2-Amino-N-(12-(4-(pyridin-4-yloxy)piperidin-1-yl)dodecyl) nicotinamide]?
Relative cell viability (%) ([1]; SU-DHL-8, 1 μM): 4.16%; Relative cell viability (%) ([1]; SU-DHL-8, 10 μM): 3.30%; Relative cell viability (%) ([1]; SU-DHL-8, 30 μM): 1.79%; Relative cell viability (%) ([1]; SU-DHL-8, 50 μM): 1.42%; Proliferation inhibition rate (%) ([2]; concentration 100 nM): 100.00%; Proliferation inhibition rate (%) ([2]; concentration 1 μM): 100.00%; Proliferation inhibition rate (%) ([2]; concentration 10 μM): 100.00%; Proliferation inhibition rate (%) ([2]; concentration 30 μM): 100.00%; Proliferation inhibition rate (%) ([2]; concentration 50 μM): 100.00%

What does the source list for `CC1CCCN(CCCCCCCCCCCCNC(=O)c2cccnc2N)CC1` (centres unmarked) [Compound 39, 2-Amino-N-(12-(4-methylazepan-1-yl)dodecyl) nicotinamide]?
Relative cell viability (%) ([1]; SU-DHL-8, 1 μM): 11.48%; Relative cell viability (%) ([1]; SU-DHL-8, 10 μM): 8.41%; Relative cell viability (%) ([1]; SU-DHL-8, 30 μM): 6.24%; Relative cell viability (%) ([1]; SU-DHL-8, 50 μM): 4.27%; Proliferation inhibition rate (%) ([2]; concentration 100 nM): 100.00%; Proliferation inhibition rate (%) ([2]; concentration 1 μM): 100.00%; Proliferation inhibition rate (%) ([2]; concentration 10 μM): 100.00%; Proliferation inhibition rate (%) ([2]; concentration 30 μM): 100.00%; Proliferation inhibition rate (%) ([2]; concentration 50 μM): 100.00%

Which “Relative cell viability (%)” value ([1]; SU-DHL-8, 1 μM) does the source give for `CC1CN(C)C(CCCCCCCCCCCCNc2ccc3cncnc3n2)N1` (centres unmarked) [Compound 43] here?
Its value is 22.61%.

And the “Relative cell viability (%)” value ([1]; SU-DHL-8, 10 μM)?
The value was 11.93%.

And the “Relative cell viability (%)” value ([1]; SU-DHL-8, 30 μM)?
Its value is 2.34%.

What about the “Relative cell viability (%)” value ([1]; SU-DHL-8, 50 μM) of the same compound?
The value was 1.58%.

And the “Proliferation inhibition rate (%)” value ([2]; concentration 100 nM)?
The value was 100.00%.

What about the “Proliferation inhibition rate (%)” value ([2]; concentration 1 μM) of the same compound?
The value was 100.00%.

And the “Proliferation inhibition rate (%)” value ([2]; concentration 10 μM)?
Its value is 100.00%.

And the “Proliferation inhibition rate (%)” value ([2]; concentration 30 μM)?
The value was 100.00%.

And the “Proliferation inhibition rate (%)” value ([2]; concentration 50 μM)?
Its value is 100.00%.

How did the “Relative cell viability (%)” value ([1]; SU-DHL-8, 1 μM) turn out when `Cl.Nc1ncccc1C(=O)NCCCCCCCCCCCCN1CC[C@H](N)C1` [Compound 50, (S)-2-Amino-N-(12-(3-aminopyrrolidin-1-yl)dodecyl) nicotinamide hydrochloride] was run?
Its value is 9.20%.

And the “Relative cell viability (%)” value ([1]; SU-DHL-8, 10 μM)?
The value was 8.18%.

And the “Relative cell viability (%)” value ([1]; SU-DHL-8, 30 μM)?
Its value is 6.18%.

What about the “Relative cell viability (%)” value ([1]; SU-DHL-8, 50 μM) of the same compound?
The value was 4.31%.

What about the “Proliferation inhibition rate (%)” value ([2]; concentration 100 nM) of the same compound?
The value was 100.00%.

And the “Proliferation inhibition rate (%)” value ([2]; concentration 1 μM)?
Its value is 100.00%.

What about the “Proliferation inhibition rate (%)” value ([2]; concentration 10 μM) of the same compound?
Its value is 100.00%.

And the “Proliferation inhibition rate (%)” value ([2]; concentration 30 μM)?
The value was 100.00%.

What about the “Proliferation inhibition rate (%)” value ([2]; concentration 50 μM) of the same compound?
The value was 100.00%.

What does the source list for `Cc1ccc(OC2CCN(CCCCCCCCCCCCNC(=O)c3cccnc3N)CC2)cc1` [Compound 51, 2-Amino-N-(12-(4-(p-tolyloxy)piperidin-1-yl)dodecyl) nicotinamide]?
Relative cell viability (%) ([1]; SU-DHL-8, 1 μM): 3.48%; Relative cell viability (%) ([1]; SU-DHL-8, 10 μM): 1.98%; Relative cell viability (%) ([1]; SU-DHL-8, 30 μM): 0.89%; Relative cell viability (%) ([1]; SU-DHL-8, 50 μM): 0.48%; Proliferation inhibition rate (%) ([2]; concentration 10 nM): 0.77%; Proliferation inhibition rate (%) ([2]; concentration 1 μM): 100.00%; Proliferation inhibition rate (%) ([2]; concentration 10 μM): 100.00%; Proliferation inhibition rate (%) ([2]; concentration 30 μM): 100.00%; Proliferation inhibition rate (%) ([2]; concentration 50 μM): 100.00%

Which results are given for `Nc1ncccc1C(=O)NCCCCCCCCCCCCN1CCN(CCO)CC1` [Compound 54, 2-Amino-N-(12-(4-(2-hydroxyethyl)piperazin-1-yl)dodecyl) nicotinamide]?
Relative cell viability (%) ([1]; SU-DHL-8, 1 μM): 6.42%; Relative cell viability (%) ([1]; SU-DHL-8, 10 μM): 4.05%; Relative cell viability (%) ([1]; SU-DHL-8, 30 μM): 3.26%; Relative cell viability (%) ([1]; SU-DHL-8, 50 μM): 2.23%; Proliferation inhibition rate (%) ([2]; concentration 100 nM): 100.00%; Proliferation inhibition rate (%) ([2]; concentration 1 μM): 100.00%; Proliferation inhibition rate (%) ([2]; concentration 10 μM): 100.00%; Proliferation inhibition rate (%) ([2]; concentration 30 μM): 100.00%; Proliferation inhibition rate (%) ([2]; concentration 50 μM): 100.00%

How did the “Relative cell viability (%)” value ([1]; SU-DHL-8, 1 μM) turn out when `Cc1ccc(C2CCN(CCCCCCCCCCCCNC(=O)c3cccnc3N)CC2)cc1` [Compound 55, 2-Amino-N-(12-(4-(p-tolyl)piperidin-1-yl)dodecyl) nicotinamide] was run?
Its value is 9.36%.

And the “Relative cell viability (%)” value ([1]; SU-DHL-8, 10 μM)?
The value was 4.92%.

And the “Relative cell viability (%)” value ([1]; SU-DHL-8, 30 μM)?
The value was 1.10%.

And the “Relative cell viability (%)” value ([1]; SU-DHL-8, 50 μM)?
Its value is 0.97%.

And the “Proliferation inhibition rate (%)” value ([2]; concentration 100 nM)?
Its value is 100.00%.

What about the “Proliferation inhibition rate (%)” value ([2]; concentration 1 μM) of the same compound?
The value was 100.00%.

What about the “Proliferation inhibition rate (%)” value ([2]; concentration 10 μM) of the same compound?
Its value is 100.00%.

What about the “Proliferation inhibition rate (%)” value ([2]; concentration 30 μM) of the same compound?
Its value is 100.00%.

What about the “Proliferation inhibition rate (%)” value ([2]; concentration 50 μM) of the same compound?
The value was 100.00%.

Which “Relative cell viability (%)” value ([1]; SU-DHL-8, 1 μM) does the source give for `Cl.O=C(NCCCCCCCCCCCCN1CCNCC1)c1ccc(-c2ccccc2)o1` [Compound 90, 5-Phenyl-N-(12-(piperazin-1-yl)dodecyl) furan-2-carboxamide hydrochloride] here?
Its value is 7.19%.

And the “Relative cell viability (%)” value ([1]; SU-DHL-8, 10 μM)?
The value was 5.94%.

What about the “Relative cell viability (%)” value ([1]; SU-DHL-8, 30 μM) of the same compound?
Its value is 2.48%.

What about the “Relative cell viability (%)” value ([1]; SU-DHL-8, 50 μM) of the same compound?
Its value is 1.94%.

And the “Proliferation inhibition rate (%)” value ([2]; concentration 10 μM)?
The value was 100.00%.

And the “Proliferation inhibition rate (%)” value ([2]; concentration 30 μM)?
The value was 100.00%.

And the “Proliferation inhibition rate (%)” value ([2]; concentration 50 μM)?
The value was 100.00%.

Which results are given for `CN1CCN(CCCCCCCCCCCCNC(=O)c2cccnc2F)CC1` [Compound 121, 2-fluoro-N-(12-(4-methylpiperazin-1-yl)dodecyl) nicotinamide]?
Relative cell viability (%) ([1]; SU-DHL-8, 1 μM): 34.89%; Relative cell viability (%) ([1]; SU-DHL-8, 10 μM): 28.99%; Relative cell viability (%) ([1]; SU-DHL-8, 30 μM): 29.04%; Relative cell viability (%) ([1]; SU-DHL-8, 50 μM): 31.11%; Proliferation inhibition rate (%) ([2]; concentration 10 nM): 0.00%; Proliferation inhibition rate (%) ([2]; concentration 100 nM): 0.00%; Proliferation inhibition rate (%) ([2]; concentration 1 μM): 0.00%; Proliferation inhibition rate (%) ([2]; concentration 10 μM): 30.00%; Proliferation inhibition rate (%) ([2]; concentration 30 μM): 100.00%; Proliferation inhibition rate (%) ([2]; concentration 50 μM): 100.00%

What does the source list for `Nc1ncccc1C(=O)NCCCCCCCCCCCCN1CC(F)(F)C1` [Compound 122, 2-Amino-N-(12-(3,3-difluoroazetidin-1-yl)dodecyl) nicotinamide]?
Relative cell viability (%) ([1]; SU-DHL-8, 1 μM): 31.84%; Relative cell viability (%) ([1]; SU-DHL-8, 10 μM): 31.91%; Relative cell viability (%) ([1]; SU-DHL-8, 30 μM): 32.93%; Relative cell viability (%) ([1]; SU-DHL-8, 50 μM): 35.70%; Proliferation inhibition rate (%) ([2]; concentration 10 nM): 0.00%; Proliferation inhibition rate (%) ([2]; concentration 100 nM): 0.00%; Proliferation inhibition rate (%) ([2]; concentration 1 μM): 80.00%; Proliferation inhibition rate (%) ([2]; concentration 10 μM): 100.00%; Proliferation inhibition rate (%) ([2]; concentration 30 μM): 100.00%; Proliferation inhibition rate (%) ([2]; concentration 50 μM): 100.00%
